Drawing on patent US4107165A, “Tris[tetrahydroisoquinoline] compounds” (Endo Laboratories, priority 1976, dated 1978), this text covers IC50, ED50 and toxicity for 1 compound.

Structures are written as SMILES.

Series [1] deals with ADP-induced platelet aggregation. As to the kind of experiment: inhibition of ADP-induced platelet aggregation in platelet rich plasma. It is filed as cell-based. The settings on record: 5 min; human platelet rich plasma, 37° C, five minutes incubation prior to ADP; read-out: ED50 (amount which reduces platelet aggregation by 50%). The method, then:
Another selection of representative compounds within the scope of the present invention, including some listed in the previous table, have been tested for their ability to inhibit platelet aggregation. Citrated whole blood from human volunteers, who had not taken any medicine for the previous week, was centrifuged to obtain platelet rich plasma. On addition of ADP (adenosine diphosphate) to this platelet rich plasma, incubated at 37° C with constant stirring, in an aggregometer, optical density changes can be observed which are caused by platelet aggregation. Thus, the extent of ADP-induced platelet aggregation is determined for each sample of blood used. Compounds to be tested were incubated for five minutes prior to the addition of ADP. The ED50 of a compound is that amount, in γ/ml, which reduces platelet aggregation by 50% under the above conditions.

The next series concerns whole blood clot. As to the kind of experiment: whole blood clot lysis method (fibrinolytic activity), blood from rats given compound intraperitoneally. In kind it is in vivo. The settings on record: Rattus norvegicus, ip, 4 h, intraperitoneal, blood diluted 1:10, clotted with thrombin, 37° C, four hours, read-out: ED50 (dose which causes lysis of 50% of the clot). The method, then:
Certain representative compounds within the scope of the present invention have been tested for fibrinolytic activity by the whole blood clot lysis method, as modified from the procedure of Billimoria et al.^1 In this method, blood from rats given a fibrinolytic compound intraperitoneally is taken and diluted 1:10. A standard amount is clotted with thrombin, incubated at 37° C for four hours, and the amount of clot that has lysed is determined. […] These ED50 values for the various compounds tested are set forth in the following table, each of the compounds being identified by name and by the number of the ensuing example in which its synthesis is described. […] ^1 Billimoria, […]., James, […]., Lancet II, 471 (1959)

The test system of a further series is rats. As to the kind of experiment: toxicity, intraperitoneal administration to rats. It is filed as in vivo. The settings on record: at 0.01 mg./kg. and at 10 mg./kg. An excerpt: An outstanding feature of the compounds of this invention is their relative lack of toxicity. Although they are active at very low dose levels, it is possible to exceed minimum effective levels by wide margins without encountering serious adverse reactions. This permits the compounds to be used within wide limits without concern about undesirable side effects, as are so frequently encountered upon inadvertent overdosage of other substances of great potency.

On to `COc1cc2c(cc1OC)C(CCCCC(CCC1NCCc3cc(OC)c(OC)cc31)CCC1NCCc3cc(OC)c(OC)cc31)NCC2.Cl.Cl.Cl` (stereo not drawn) [Example 1.1, 1,1'-{3-[2-(1,2,3,4-tetrahydro-6,7-dimethoxy-1-isoquinolinyl)ethyl]heptamethylene}bis[1,2,3,4-tetrahydro-6,7-dimethoxyisoquinoline] trihydrochloride], for which the IC50 in series [1] came to 6 µg/mL. In addition, the ED50 in the series on whole blood clot amounted to 0.02 mg/kg. In the series with rats, the toxicity entry is given as “without producing toxicity”.

The ED50 is the dose that gives a 50% effect, or the effect in half of the subjects.
